Results on six compounds are retold here after article PMC7601681, “Human Serum Albumin Binds Native Insulin and Aggregable Insulin Fragments and Inhibits Their Aggregation” (Biomolecules, 2020).

Series [1] is described as follows: Thioflavin T (ThT) fluorescence aggregation assay. The following applies: peptide 0.33 mM with HSA 0.33 mM, phosphate buffer pH 6.0, 7 days at 37.2 °C, then ThT for 3 days, λexc 440 nm, 470–600 nm. It is filed as physicochemical. The protocol:
Insulin, peptides 5 and 6, and HSA (final concentration 0.66 mM), as well as each sample of the mixture of insulin, peptides 5 and 6) (0.33 mM) with HSA (0.33 mM) were incubated in phosphate buffer solution, pH 6.0 (2 mL), for 7 days at a temperature of 37.2 °C. Then, 2 mL of a solution of Thioflavin T ([…] in phosphate buffer, pH 6.0) was added to the samples. Incubation continued for another 3 days. During this time, spectroscopic measurements of all samples were performed in the range of 470–600 nm, excitation wavelength 440 nm. The intensity of fluorescence spectra recorded on the first, second, and third days of incubation for all samples. are shown in the Supplementary Material (Figures S3 and S4).
The fluorescence intensity measurements were carried out using a FLUOROMAX-4 system from Horiba Scientific (Edison, NJ, USA), measurement range of 470–600 nm, excitation wavelength 440 nm.

A short description of series [2]: Light microscopy of Congo Red stained aggregates. The class given is physicochemical. As to conditions: CR staining 3 days; for microscopic examination of CR-stained aggregates, in the presence of HSA: peptide 1.44 mM, HSA 0.30 mM, phosphate buffer 0.1 M pH 7.2, 7 days at 37.4 °C; for microscopic examination of CR-stained aggregates, without HSA: phosphate buffer 0.1 M pH 7.2, 7 days at 37 °C. The protocol:
Microscopic studies were carried out for samples prepared in phosphate buffer (0.1 M, pH 7.2) incubated for 7 days at 37.4 °C. To 2 mL of H-LYQLENY-OH (5) and H-VEALYL-OH (6) (c = 2.88 mM) solution was added 2 mL of HSA solution (c = 0.60 mM). The final concentration of incubated peptides was equal to c = 1.44 mM, whereas, for plasma protein, it was 0.30 mM. Incubation was also performed for 4 mL of an HSA sample (c = 0.3 mM). After that period, 4 mL of CR solution (c = 45 μM in phosphate buffer, pH 7.2) was added to the all samples, which were incubated for another 3 days at room temperature.
The microscopic assays were performed for samples stained with Congo Red dye. The samples were transferred on a microscopic slide and visualized using a Delta Optical Genetic Pro (Warsaw, Poland) light microscope.

A short description of series [3]: Circular dichroism (CD) after incubation with HSA. The following applies: 0.1 mg/mL, phosphate buffer pH 7.2, measured after 30 min, two and four days of incubation at 37 °C, 190–270 nm. The class given is physicochemical. The protocol:
Samples were prepared by dissolving 1 mg of the analyzed peptide in phosphate buffer pH 7.2 (10 mL), to a final concentration of 0.1 mg/mL All measurements were carried out at room temperature using a quartz cuvette (1 mm path length, Hellma). The experimental settings were as follows: measurements range, 190–270 nm; data pitch, 5 nm; scanning mode, continuous; scanning speed, 100 nm/min; bandwidth, 3 nm; integration time, 1 s.
The CD spectra were recorded using a Jasco J-1500 instrument (Jasco, Cracow, Poland) and quartz cuvettes with 1 mm optical path lengths. The measurements were acquired in the range of 190–270 nm at ambient temperature by taking points every 5 nm, with a scan rate of 100 nm per min, an integration time of 1 s, and a bandwidth of 4 nm. The samples were prepared in phosphate buffer (0.1 M, pH 7.2) with a final concentration of 0.1 mg/mL.
Circular dichroism (CD) spectroscopy can be a very valuable source of information about differences in the secondary structure of peptides and proteins. It has been shown that all α-helical proteins show a strong minimum at 222 nm and 208–210 nm and a strong maximum at 191–193 nm. In the case of β-sheet protein, a single negative band may be observed in the 210–225 nm wavelength range and a strong positive band in the 190–200 nm wavelength range, although their intensities are noticeably lower than those for α-proteins. The CD spectra recorded for buffered solutions of insulin (4) and hot-spot fragments (5), (6) in the presence of HSA as well as for native insulin are presented in Figure 9a,b. The measurements were performed after 30 min (sample 0), and then after two and four days of incubation at 37 °C.
(In general: CD spectra are sensitive to the conformation of chiral molecules.)

Series [4] is described as follows: Congo Red (CR) UV-Vis aggregation assay. It is filed as physicochemical. As to conditions: peptide 1.44 mM with HSA 1.44 mM, phosphate buffer pH 7.2, 7 days at 37.2 °C, then CR 45 μM for 3 days, UV-Vis 400–800 nm. The protocol:
Insulin, peptides 5 and 6, and HSA (final concentration 2.88 mM), as well as each sample of the mixture of insulin, peptides 5 and 6) (1.44 mM) with HSA (1.44 mM), were incubated in phosphate buffer solution at pH 7.2 (1 mL) for 7 days at a temperature of 37.2 °C. Then, 1 mL of a solution of Congo Red dye (45 μM in phosphate buffer, pH 7.2) was added to each incubated sample. Incubation continued for another 3 days. During this time, spectroscopic measurements of all the samples were performed in the range of 400–800 nm. The UV-Vis spectra recorded on the first, second, and third days of incubation for all samples are shown in the Supplementary Material (Figures S1 and S2).
The UV-Vis measurements were carried out using a Hitachi spectrophotometer (Hitachi, Tokyo, Japan).

Another series relates to albumins. As to conditions: cited from earlier work. The source says:
Pyrene and its derivatives are very popular fluorescent markers used to study interactions with HSA [49, 50, 51, 52]. Despite the fact that there is differentiated localization of pyrene derivatives in HSA, these systems are commonly applied as fluorescent probes, due to the high sensitivity of their fine vibronic structure to changes in the environment (the Ham effect) and long fluorescence lifetimes. […] A similar trend was also observed for the complex of ...

A further series has as its target T1, HSA (Homo sapiens, UniProt P02768).
T1 construct: purchased Sigma-Aldrich
As to conditions: probe trapped inside HSA; cited from earlier work. The source says: The calculated value also confirmed existence of interactions between 2 and HSA with pyrene fragment presented on less polar environment inside protein. […] The binding constants 1.5 ± 0.3 × 10^6 dm^3 ...

T1 sequence (P02768 25-609): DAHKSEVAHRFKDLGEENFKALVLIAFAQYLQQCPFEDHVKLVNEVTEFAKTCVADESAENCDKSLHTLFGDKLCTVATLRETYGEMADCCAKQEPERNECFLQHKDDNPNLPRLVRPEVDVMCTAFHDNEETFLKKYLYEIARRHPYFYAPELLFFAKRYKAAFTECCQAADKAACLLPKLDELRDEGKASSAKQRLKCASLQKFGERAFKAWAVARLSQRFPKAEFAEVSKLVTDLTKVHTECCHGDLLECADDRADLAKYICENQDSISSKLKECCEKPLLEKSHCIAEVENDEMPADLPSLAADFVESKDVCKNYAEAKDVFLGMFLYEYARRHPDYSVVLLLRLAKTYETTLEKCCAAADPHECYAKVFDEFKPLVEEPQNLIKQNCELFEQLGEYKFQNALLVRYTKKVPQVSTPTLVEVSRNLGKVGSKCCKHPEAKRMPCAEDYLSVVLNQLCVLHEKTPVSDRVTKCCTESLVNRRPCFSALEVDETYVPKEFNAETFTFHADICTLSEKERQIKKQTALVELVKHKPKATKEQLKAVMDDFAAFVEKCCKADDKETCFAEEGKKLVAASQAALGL

With H-VEALYL-OH [VEALYL, H-VEALYL-OH], the “Thioflavin T assay of HSA complexes: fluorescence intensity” value (“Thioflavin T assay of HSA complexes” below) in series [1] was “no increase in fluorescence intensity”. In series [2], the “microscopic examination of CR-stained aggregates, in the presence of HSA” value was “significantly less content of fibers characteristic for amyloid deposits” and the “microscopic examination of CR-stained aggregates, without HSA” value is reported as “typical amyloid fibers”. In series [3], the “secondary structure / amyloid formation in the presence of HSA by CD” value (shortened to “secondary structure / amyloid formation”) is recorded as “prevents the formation of amyloid fibrils”. For the same compound, in series [4], the “Congo Red assay of HSA complexes: absorbance change” value (shortened to “Congo Red assay … absorbance change”) is listed as “no decrease in absorbance typical for amyloid structures”.
Take `O=C(O)CCCc1ccc2ccc3cccc4ccc1c2c34` [PBA, 4-(1-pyrene)butyric acid]: the affinity for albumin entry in the series with albumins was “weak affinity”.
As for H-LYQLENY-OH [LYQLENY, H-LYQLENY-OH], in series [1], the “Thioflavin T assay of HSA complexes” value is reported as “no increase in fluorescence intensity”. In series [2], the “microscopic examination of CR-stained aggregates, in the presence of HSA” value is “significantly less content of fibers characteristic for amyloid deposits” and the “microscopic examination of CR-stained aggregates, without HSA” value is recorded as “typical amyloid fibers”. In addition, the “secondary structure / amyloid formation” value in series [3] was “increase in the amount of the α-helix structure”. In addition, the “Congo Red assay … absorbance change” value in series [4] is reported as “no decrease in absorbance typical for amyloid structures”.
For `O=S(=O)(O)c1ccc2ccc3cccc4ccc1c2c34` [PSA, 1-pyrene sulfonic acid], on HSA, the “binding constant, non-specific binding” value is 3.8 × 10^5 dm^3 mol^−1 and the “binding constant, specific receptor site” value was 6.5 × 10^6 dm^3 mol^−1.
Regarding `c1cc2ccc3cccc4ccc(c1)c2c34` [Pyrene], the “binding constant with albumins” value in the series with albumins (nonspecific binding, order of magnitude) is ~10^4 dm^3 mol^−1.
Take “insulin: native human recombinant insulin (Sigma-Aldrich)”: the “Thioflavin T assay of HSA complexes” value in series [1] is listed as “no increase in fluorescence intensity”. The “secondary structure / amyloid formation” value in series [3] is reported as “does not tend to form amyloid fibrils”. In addition, the “Congo Red assay … absorbance change” value in series [4] is given as “no decrease in absorbance typical for amyloid structures”.
